Earlier results in patent publication US20240261419A1, “[…] PSILOCIN CONJUGATES FOR TREATMENT OF MENTAL ILLNESSES” (LONDON PHARMACEUTICALS AND RESEARCH CORPORATION, priority 2021, published 2024).
Read-outs that look alike come from different tables or passages of the source.

Conditions: background comparison of pharmacokinetic profiles

SMILES | time to reach maximum plasma level (psilocybin) | time to reach maximum plasma level (CBD)
CN(C)CCc1c[nH]c2cccc(OP(=O)(O)O)c12 [psilocy bin, psilocybin] | 90 min | –
C=C(C)[C@@H]1CCC(C)=C[C@H]1c1c(O)cc(CCCCC)cc1O [CBD, cannabidiol] | – | 240 to 360 min
